According to US7608392B2, “Diagnostic assay for measuring a cell mediated immune response” (priority 2002, dated 2009):
Several values for one entry are separate records, joined by “and”; a condition that tells them apart may be missing. Equal entries are not always repeated.

Legend:
Assay type in all cases: cell-based, human
[1] = system: whole blood; conditions: blood collection tube, dextrose added; one line per subject; * OD outside the range of the plate reader
[2] = system: whole blood; assay: Whole blood IFN-γ response to antigen with or without dextrose, 24-well plate, Quantiferon-TB ELISA (Example 2)
[3] = system: whole blood; assay: Whole blood IFN-γ response to HuPPD or Mitogen, 24-well plate versus blood collection tube, Quantiferon-TB ELISA (Example 4)
[4] = system: whole blood

Substance	IFN-γ, In-Tube Method, Mitogen [1]	Concentration of IFN-γ found for each plasma sample, +Dextrose ([2]; 24-well plate, 20 hours 37° C., dextrose 2 mg/mL, one line per donor)	Concentration of IFN-γ found for each plasma sample, −Dextrose ([2]; 24-well plate, 20 hours 37° C., without dextrose, one line per donor)	Fold increase with dextrose ([2]; IFN-γ +Dextrose 2 mg/mL / −Dextrose, one line per donor)	Change in IFN-γ detected with addition of dextrose (in words) ([2]; dextrose 2 mg/mL, 24-well plate)	Amount of IFN-γ detected, Mitogen 24-well ([3]; after subtraction of saline negative control, 24-well plate, one line per donor)	Amount of IFN-γ detected, Mitogen Tube ([3]; after subtraction of saline negative control, blood collection tube, mean of duplicate tubes, one line per donor)	Mean fold increase, Mitogen Tube/24-well ([3]; mean over donors)	Mitogen Tube/24-well ([3]; ratio of IFN-γ, one line per donor)	Mean fold increase, TetTox Tube/24 well [4]
phytohemagglutinin [Mitogen]	52.50 IU/mL and 4.15 IU/mL and 17.377* IU/mL and 5.57 IU/mL and 2.31 IU/mL and 11.77 IU/mL and 21.063* IU/mL and 4.02 IU/mL and 11.23 IU/mL and 17.05* IU/mL	122.76 IU/mL and 25.71 IU/mL	108.72 IU/mL and 28.67 IU/mL	0.90 and 1.13	slight increase in IFN-γ detected for one of the donors and a slight decrease for the other	83.34 IU/mL and 1.13 IU/mL and 10.04 IU/mL and 6.85 IU/mL and 12.32 IU/mL and 8.77 IU/mL and 76.98 IU/mL and 65.02 IU/mL and 8.14 IU/mL and −0.56 IU/mL and 21.79 IU/mL and 30.58 IU/mL and 28.26 IU/mL and 8.10 IU/mL and 2.75 IU/mL and 6.14 IU/mL and 14.05 IU/mL and 2.46 IU/mL and 11.80 IU/mL and 7.69 IU/mL	61.94 IU/mL and 13.13 IU/mL and 7.95 IU/mL and 3.45 IU/mL and 13.32 IU/mL and 5.29 IU/mL and 68.58 IU/mL and 47.53 IU/mL and 5.80 IU/mL and −0.79 IU/mL and 16.34 IU/mL and 22.52 IU/mL and 19.16 IU/mL and 5.71 IU/mL and 1.88 IU/mL and 3.55 IU/mL and 9.07 IU/mL and 7.91 IU/mL and 8.73 IU/mL and 3.52 IU/mL	0.73	0.74 (3×) and 0.79 and 0.05 and 1.08 and 0.60 and 0.89 and 0.73 and 0.71 (2×) and 0.75 and 0.68 and 0.58 and 0.65 and 3.22 and 0.46	
tetanus toxoid										4.5 and 4.51
